Source: patent publication US20240207414A1, “DISULFIDE-BASED PRODRUG COMPOUND” (Ludwig-Maximilians-Universitat Munchen, priority 2021, published 2024)

Key:
GR/GSH = target: T1, GR/GSH (Homo sapiens, UniProt P00390); assay: Enzymatic activation assay: GR/GSH; type: biochemical; conditions: NADPH/GR/GSH
T1 sequence (P00390 44-522): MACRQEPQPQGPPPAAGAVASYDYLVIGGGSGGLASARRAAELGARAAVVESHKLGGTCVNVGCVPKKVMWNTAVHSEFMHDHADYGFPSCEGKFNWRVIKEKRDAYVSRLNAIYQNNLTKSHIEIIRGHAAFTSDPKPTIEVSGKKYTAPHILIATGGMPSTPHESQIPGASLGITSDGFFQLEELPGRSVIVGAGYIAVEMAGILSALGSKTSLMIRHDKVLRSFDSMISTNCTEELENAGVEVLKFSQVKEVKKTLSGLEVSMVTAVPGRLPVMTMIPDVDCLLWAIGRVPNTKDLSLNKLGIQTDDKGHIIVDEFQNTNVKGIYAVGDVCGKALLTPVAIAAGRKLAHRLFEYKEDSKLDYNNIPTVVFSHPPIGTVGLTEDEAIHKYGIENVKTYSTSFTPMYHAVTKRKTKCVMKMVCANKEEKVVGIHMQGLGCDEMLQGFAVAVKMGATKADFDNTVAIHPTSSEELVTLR
From the text: (§1) This assay (see FIG. 2) examined the resistance of disulfide-based reduction-triggered compounds to the major cellular enzymatic systems that maintain redox homeostasis and are capable of reducing disulfides, evaluated in a cell-free assay, to see if these compounds can be useful for selective enzyme-triggered release.
(§2) Assay conditions: A black 96-well plate with black bottom was charged with solutions of fluorophore-releasing reduction-triggered probes that are compounds of the invention (P1, P2) or that are not compounds of the invention and reveal the performance of prior art systems (X19) (50 μL; 40 μM in aq. TE buffer (pH 7.4) and 4 μL DMSO). Separately, master mixes (30 μL in aq. TE buffer (pH 7.4)) containing mixtures of the proteins human recombinant thioredoxin 1 (Trx1, 0.166-16.66 μM) or thioredoxin 2 (Trx2, 3.3 μM), or human recombinant glutaredoxin 1 (“Grx1”, 3.3 μM) or glutaredoxin 2 (Grx2, 3.3 μM) and/or oxidoreductases human recombinant thioredoxin reductase 1 (TrxR1, 0.07 μM), the thioredoxin reductase Secys498Cys mutant (TrxR1-U498C, 0.07 μM), thioredoxin reductase 2 (TrxR2, 0.07 μM) or human recombinant glutathione reductase (GR, 0.07 μM), and/or GSH (3.3 μM) were prepared. Note that TrxR1 (U498C) has decreased reducing power compared to TrxR1 due to the mutation of the key vicinal selenothiol/thiol into a vicinal dithiol, but it still reduces Trx1. […]
(§3) Data Representation: (F(t)-F^NADPH(t)) is the fluorescence intensity of the test solution at time t, from which is subtracted a background fluorescence level also at time t from a solution with NADPH (which itself is fluorescent, and is present in 10-fold higher concentration than the probe) and with the same protein mixture but without the probe. F^max(t) is the maximum possible fluorescence intensity value at time t, determined by incubation with TCEP (100 μM)) similarly as for the chemical reductant assay. (F(t)−F^NADPH(t))/F^max(t) thus gives the timecourse of fluorescence signal, as a fraction of the maximum possible fluorescence signal. […]

HeLa, A549 and MEF cells = assay: Cellular reduction assay (FIG. 3); type: cell-based, human, mouse; conditions: 100 μM, 1% vol DMSO, cells under ordinary conditions
Method: Assay Conditions: Cells were cultured under standard conditions (Gao, L. et al. Cell Chemical Biology 2021, 28, 1-14. https://doi.org/10.1016/j.chembiol.2020.11.007), left to adhere for 24 h, then compounds were added to 100 μM with 1% vol DMSO. Fluorescence timecourse measurements were acquired as in the chemoreductant assay, with all conditions in triplicates.
Data Representation: F(t)-F(0) is the fluorescence intensity signal increase as compared to time zero signal (fluorescence intensity immediately following compound addition, before probe activation can occur), in arbitrary units although with the same detection settings for all probes releasing the same cargo. This corresponds to reduction-triggered cargo release. “ctrf” indicates cells not treated with probes, as a negative control.

TrxR1(U498C) = target: T2, TrxR1(U498C) (Homo sapiens, UniProt Q16881); assay: Enzymatic activation assay: TrxR1 Secys498Cys mutant; type: biochemical; conditions: NADPH; for cargo release / processing by TrxR1(U498C)/Trx1: TrxR1(U498C) with Trx1
T2 sequence (Q16881 with tags, fused parts or gaps isoform Q16881-5): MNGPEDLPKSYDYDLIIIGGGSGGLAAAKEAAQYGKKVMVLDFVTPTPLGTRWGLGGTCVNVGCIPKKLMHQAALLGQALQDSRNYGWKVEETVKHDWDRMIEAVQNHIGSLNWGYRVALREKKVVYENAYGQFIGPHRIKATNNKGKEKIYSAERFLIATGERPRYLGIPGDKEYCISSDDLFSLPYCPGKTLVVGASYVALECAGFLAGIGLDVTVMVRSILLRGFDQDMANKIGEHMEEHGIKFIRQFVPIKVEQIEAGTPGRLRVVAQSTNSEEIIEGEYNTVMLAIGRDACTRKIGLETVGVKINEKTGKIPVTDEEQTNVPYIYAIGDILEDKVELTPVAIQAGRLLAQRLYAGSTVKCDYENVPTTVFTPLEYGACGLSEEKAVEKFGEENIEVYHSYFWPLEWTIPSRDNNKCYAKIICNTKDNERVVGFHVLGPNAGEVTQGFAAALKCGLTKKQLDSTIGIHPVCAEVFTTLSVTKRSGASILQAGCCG
From the text: as §1, §2, §3

O=C(Oc1ccc(Cl)cc1-c1nc2ccc(Cl)cc2c(=O)[nH]1)N1CCC[C@@H]2CSSC[C@H]21 (racemic) [Compound P1, 4-chloro-2-(6-chloro-4-oxo-3,4-dihydroquinazolin-2-yl)phenyl-(trans)-hexahydro-[1,2]dithiino[4,5-b]pyridine-1(2H)-carboxylate]
cargo release / processing by GR/GSH mixture (GR/GSH): resist | cargo release inside cells (fluorescence signal increase over time) (HeLa, A549 and MEF cells): do not release cargo inside cells under ordinary conditions | cargo release / processing by TrxR1(U498C)/Trx1 (TrxR1(U498C)): not processed

O=C(Oc1ccc(Cl)cc1-c1nc2ccc(Cl)cc2c(=O)[nH]1)N1CCC[C@@H]2CSSC[C@@H]21 (racemic) [Compound P2, 4-chloro-2-(6-chloro-4-oxo-3,4-dihydroquinazolin-2-yl)phenyl-(cis)-hexahydro-[1,2]dithiino[4,5-b]pyridine-1(2H)-carboxylate]
cargo release / processing by GR/GSH mixture (GR/GSH): resist | cargo release inside cells (fluorescence signal increase over time) (HeLa, A549 and MEF cells): do not release cargo inside cells under ordinary conditions | cargo release / processing by TrxR1(U498C)/Trx1 (TrxR1(U498C)): not processed

4-chloro-2-(6-chloro-4-oxo-3,4-dihydroquinazolin-2-yl)phenyl methyl(2-((2-(methyl amino)ethyl)disulfaneyl)ethyl)carbamate [Compound X19, reference compound]
cargo release / processing by GR/GSH mixture (GR/GSH): rapidly degraded | cargo release inside cells (fluorescence signal increase over time) (HeLa, A549 and MEF cells): substantially release cargo inside cells cultured under ordinary conditions | cargo release / degradation by TrxR1(U498C) (TrxR1(U498C); TrxR1(U498C)): rapidly degraded
